Data on four compounds can be found in patent publication US7388028B2, “Methoxypolyethylene glycol thioester chelate and uses thereof” (priority 2006, dated 2008).

Test [1] concerns NMDA retinal damage model. Nature of the test: NMDA retinal damage model, electroretinogram A and B waves. The format is in vivo, rats. The protocol: NMDA retinal damage model: Changes in electroretinogram (ERG) A and B waves have been used as indicators of RGC damage. To examine RGC neuroprotection, 2 ul intravitreal injections of 10 mM NMDA, sufficient to change ERG A and B-waves within 2 weeks, were challenged with co-administered intravitreal (2 mM) or topical 100 mM MPDTE, MPSEDE and amifostine in normal rats unilaterally. For topical administration, rats were pretreated for 5 days prior and 3 days post-NMDA administration with the agents at a frequency of 3 times per day with 20 μl agent. Scotopic ERG changes were measured in normal rats. Rats were dark adapted for at least 4 hrs. Eyes were dilated with atropine after which proparacaine and methylcellulose gel were applied topically. Custom made AgCl electrodes (64-1317, Warner Instruments, Hamden, Conn.) were placed on the apex of the cornea. Stimuli consisted of 10-microsec flashes of unattenuated white light generated by Ganzfield bowl photo stimulator (Grass Instruments, PS22, Quincy, Mass.). Data from each eye was recorded separately with a driver amplifier (Grass Instruments, Model 7DAF Polygraph, Quincy, Mass.). Data was acquired digitally via DASYLab (Bedford, N.H.). The contralateral normal eye served as an age matched negative control, e.g. response in a normal, undamaged eye. Differences in amplitude of the A-wave and B-waves between the treated eye and the contralateral eye and between treatment groups were calculated.

Test [2] deals with rat surgical glaucoma model (intraocular pressure). Nature of the test: Topical application of MP compounds, IOP measurements on rat surgical glaucoma model. The format is in vivo, rats. How it is done: Rat ocular hypertensive model: Ocular hypertension was induced in 9 male SpragueDawley rats, weighing between 400 to 500 grams. Under general anesthesia with acepromazine maleate (12 mg/Kg) and ketamine (80 mg/Kg), IP, and topical proparacaine (0.5%), dissection of the conjunctiva was made with fine cuts. To reduce the stimulus for revascularization or neovascularization, dissection of the right eye was limited to the area immediately surrounding the vortex veins. Three of four vortex veins were exposed and ligated using 9.0 nylon sutures. Criterion for inclusion into the study was an intraocular pressure (IOP) increase of 5 mm Hg or more when compared to […] baseline IOP. Within 6 weeks, the IOP of all the operated eyes increased at least 5 mm Hg compared to baseline. National Institutes of Health Guidelines and Association for Research in Vision and Opthalmology statement for the Use and Care of Animals were followed in this study.
Intraocular pressure (IOP) Measurements: Prior to initiation of treatment, baseline IOP was obtained in glaucoma rat models. IOP was measured via a specially modified Goldmann applanation tonometer (HAAG-STREIT, Bern, Switzerland) under sedation. Measurements are averages of two consecutive readings and were made at the same time of day and by the same observers.
Topical application of MP compounds for IOP measurements on rat surgical glaucoma model: Rats were treated topically with 20 μl of MP compounds (0.3-100 mM; n=3-6) on the operated eyes. The MP compounds were compared to 10 or 87 mM topical amifostine, a free radical scavenger. MP esterified chelators were diethylenetriaminepentaacetic acid (MPDTE) and MPSEDE.

Setting [3] is: Intravitreal agent (2 mM) co-administered with intravitreal 10 mM NMDA.
Setting [4] is: Topical agent (100 mM, 3 times per day, 5 days prior and 3 days post-NMDA), intravitreal 10 mM NMDA.

In the case of `CN[C@H](CC(=O)O)C(=O)O` [NMDA, N-methyl-D-aspartate, reference compound], in test [1] (setting [3]), the A wave was 51.2 % Baseline and the B wave is on record as 68.4 % Baseline. In addition, in test [1] (setting [4]), the A wave was 51.2 % Baseline and the B wave was determined as 68.4 % Baseline.

Regarding “methoxypolyethlene glycol thioester of ethylenediaminetetraacetic acid methyl triester [MPSEDE]”, the values for the A wave in test [1] (setting [3]) and in test [1] (setting [4]) were 76.2 % Baseline and 95.9 % Baseline, respectively. The values for the B wave in test [1] (setting [3]) and in test [1] (setting [4]) were 69.6 % Baseline and 93.7 % Baseline, respectively. Besides, the “reduction of NMDA damage” value in test [1] (both intravitreal and topical administration (Table 1)) is “significantly reduced NMDA damage”; in test [1] (co-administration with NMDA, at the dose tested), “trend to reduce NMDA damage, but this was not significant”. Further, the IOP reduction result in test [2] (single topical dose of 10-100 mM, operated eye, FIG. 5-7) was “significantly reduced IOP”.

Take “polyethylene glycol monomethyl ether [MP]”: in test [2] (administered alone or together, FIG. 10, not as great as with MPDTE), the IOP reduction entry was “reduction in IOP”.

Take `NCCCNCCSP(=O)(O)O` [amifostine, S-2-[3-aminopropylamino] ethylphosphorothioate]: in test [2] (topical 10 mM or 87 mM), the IOP reduction result was “No reduction in IOP”.
